Measurements reported in US9409884B2 (Rigel Pharmaceuticals, Inc., priority 2012, dated 2016).
Where a name gives a salt, the structure may show the parent alone.

biological target: AMPK; assay: AMPK activation, enzyme-linked immunosorbent assay; type: biochemical; details: Table 8, compounds of Table 1
Method in brief: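 AMPK activation by test compounds was measured by enzyme-linked immunosorbent assay.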

| EC50 [nM] | SMILES |
| --- | --- |
| < 100 | N#Cc1ccc(CN2CCC(NC(=O)c3cc4ccc(OC5CCN(c6ccc(C(F)(F)F)cc6)CC5)cc4o3)CC2)cc1 [Compound 1-90, N-(1-(4-cyanobenzyl)piperidin-4-yl)-6-(1-(4-(trifluoromethyl)phenyl)piperidin-4-yloxy)benzofuran-2-carboxamide] |
| > 10000 | O=C(NC1CCN(Cc2ccc(F)cc2)CC1)c1cc2ccc(OC3CCN(c4ccc(C(F)(F)F)cc4)CC3)cc2o1 [Compound 1-91, N-(1-(4-fluorobenzyl)piperidin-4-yl)-6-(1-(4-(trifluoromethyl)phenyl)piperidin-4-yloxy)benzofuran-2-carboxamide] |
| 500 to 1000 | O=C(NC1CCN(Cc2ccccn2)CC1)c1cc2ccc(OC3CCN(c4ccc(OC(F)(F)F)cc4)CC3)cc2o1 [Compound 1-92, N-(1-(pyridin-2-ylmethyl)piperidin-4-yl)-6-(1-(4-(trifluoromethoxy)phenyl)piperidin-4-yloxy)benzofuran-2-carboxamide] |
| 100 to 500 | O=C(NC1CCN(Cc2ccccn2)CC1)c1cc2ccc(OC3CCN(c4ccc(C(F)(F)F)cc4)CC3)cc2o1 [Compound 1-93, N-(1-(pyridin-2-ylmethyl)piperidin-4-yl)-6-(1-(4-(trifluoromethyl)phenyl)piperidin-4-yloxy)benzofuran-2-carboxamide] |
| < 100 | O=C(NC1CCN(Cc2ccc(F)cc2)CC1)c1cc2ccc(OC3CCN(c4ccc(OC(F)(F)F)cc4)CC3)cc2o1 [Compound 1-94, N-(1-(4-fluorobenzyl)piperidin-4-yl)-6-(1-(4-(trifluoromethoxy)phenyl)piperidin-4-yloxy)benzofuran-2-carboxamide] |
| < 100 | O=C(NC1CCN(Cc2cccnc2)CC1)c1cc2ccc(OC3CCN(c4ccc(OC(F)(F)F)cc4)CC3)cc2o1 [Compound 1-95, N-(1-(pyridin-3-ylmethyl)piperidin-4-yl)-6-(1-(4-(trifluoromethoxy)phenyl)piperidin-4-yloxy)benzofuran-2-carboxamide] |
| < 100 | O=C(NC1CCN(Cc2cccnc2)CC1)c1cc2ccc(OC3CCN(c4ccc(C(F)(F)F)cc4)CC3)cc2o1 [Compound 1-96, N-(1-(pyridin-3-ylmethyl)piperidin-4-yl)-6-(1-(4-(trifluoromethyl)phenyl)piperidin-4-yloxy)benzofuran-2-carboxamide] |
| < 100 | N#Cc1ccccc1CN1CCC(NC(=O)c2cc3ccc(OC4CCN(c5ccc(OC(F)(F)F)cc5)CC4)cc3o2)CC1 [Compound 1-97, N-(1-(2-cyanobenzyl)piperidin-4-yl)-6-(1-(4-(trifluoromethoxy)phenyl)piperidin-4-yloxy)benzofuran-2-carboxamide] |
| < 100 | N#Cc1ccccc1CN1CCC(NC(=O)c2cc3ccc(OC4CCN(c5ccc(C(F)(F)F)cc5)CC4)cc3o2)CC1 [Compound 1-98, N-(1-(2-cyanobenzyl)piperidin-4-yl)-6-(1-(4-(trifluoromethyl)phenyl)piperidin-4-yloxy)benzofuran-2-carboxamide] |
| < 100 | O=C(NC1CCN(Cc2ccc(C(F)(F)F)cc2)CC1)c1cc2ccc(OC3CCN(c4ccc(C(F)(F)F)cc4)CC3)cc2o1 [Compound 1-99, N-(1-(4-(trifluoromethyl)benzyl)piperidin-4-yl)-6-(1-(4-(trifluoromethyl)phenyl)piperidin-4-yloxy)benzofuran-2-carboxamide] |
| < 100 | O=C(NC1CCN(Cc2ccc(C(F)(F)F)cc2)CC1)c1cc2cc(OC3CCN(c4ccc(C(F)(F)F)cc4)CC3)ccc2o1 [Compound 1-100, N-(1-(4-(trifluoromethyl)benzyl)piperidin-4-yl)-5-(1-(4-(trifluoromethyl)phenyl)piperidin-4-yloxy)benzofuran-2-carboxamide] |
| < 100 | O=C(NC1CCN(Cc2cccnc2)CC1)c1cc2cc(OC3CCN(c4ccc(C(F)(F)F)cc4)CC3)ccc2o1 [Compound 1-101, N-(1-(pyridin-3-ylmethyl)piperidin-4-yl)-5-(1-(4-(trifluoromethyl)phenyl)piperidin-4-yloxy)benzofuran-2-carboxamide] |
| 1000 to 5000 | CN(C(=O)c1cc2cc(OC3CCN(c4ccc(C(F)(F)F)cc4)CC3)ccc2o1)C1CCN(C(=O)OC(C)(C)C)CC1 [Compound 1-102, tert-butyl 4-(N-methyl-5-(1-(4-(trifluoromethyl)phenyl)piperidin-4-yloxy)benzofuran-2-carboxamido) piperidine-1-carboxylate] |
| 1000 to 5000 | CN(C(=O)c1cc2cc(OC3CCN(c4ccc(C(F)(F)F)cc4)CC3)ccc2o1)C1CCNCC1 [Compound 1-103, N-methyl-N-(piperidin-4-yl)-5-(1-(4-(trifluoromethyl)phenyl)piperidin-4-yloxy)benzofuran-2-carboxamide] |
| 100 to 500 | CN(C(=O)c1cc2cc(OC3CCN(c4ccc(C(F)(F)F)cc4)CC3)ccc2o1)C1CCN(Cc2ccncc2)CC1 [Compound 1-104, N-methyl-N-(1-(pyridin-4-ylmethyl)piperidin-4-yl)-5-(1-(4-(trifluoromethyl)phenyl)piperidin-4-yloxy)benzofuran-2-carboxamide] |
| 100 to 500 | O=C(NC1CCN(S(=O)(=O)c2cccnc2)CC1)c1cc2ccc(OC3CCN(c4ccc(C(F)(F)F)cc4)CC3)cc2o1 [Compound 1-106, N-(1-(pyridin-3-ylsulfonyl)piperidin-4-yl)-6-(1-(4-(trifluoromethyl)phenyl)piperidin-4-yloxy)benzofuran-2-carboxamide] |
| < 100 | CN(C(=O)c1cc2cc(OC3CCN(c4ccc(C(F)(F)F)cc4)CC3)ccc2o1)C1CCN(Cc2ccc(C#N)cc2)CC1 [Compound 1-107, N-(1-(4-cyanobenzyl)piperidin-4-yl)-N-methyl-5-(1-(4-(trifluoromethyl)phenyl)piperidin-4-yloxy)benzofuran-2-carboxamide] |
| 100 to 500 | O=C(NC1CCN(S(=O)(=O)c2cccnc2)CC1)c1cc2ccc(OC3CCN(c4ccc(OC(F)(F)F)cc4)CC3)cc2o1 [Compound 1-108, N-(1-(pyridin-3-ylsulfonyl)piperidin-4-yl)-6-(1-(4-(trifluoromethoxy)phenyl)piperidin-4-yloxy)benzofuran-2-carboxamide] |
| < 100 | CN(C(=O)c1cc2cc(OC3CCN(c4ccc(C(F)(F)F)cc4)CC3)ccc2o1)C1CCN(Cc2cccnc2)CC1 [Compound 1-109, N-methyl-N-(1-(pyridin-3-ylmethyl)piperidin-4-yl)-5-(1-(4-(trifluoromethyl)phenyl)piperidin-4-yloxy)benzofuran-2-carboxamide] |
| < 100 | CN(C(=O)c1cc2cc(OC3CCN(c4ccc(C(F)(F)F)cc4)CC3)ccc2o1)C1CCN(Cc2cccc(C#N)c2)CC1 [Compound 1-110, N-(1-(3-cyanobenzyl)piperidin-4-yl)-N-methyl-5-(1-(4-(trifluoromethyl)phenyl)piperidin-4-yloxy)benzofuran-2-carboxamide] |
| 100 to 500 | CN(C(=O)c1cc2cc(OC3CCN(c4ccc(C(F)(F)F)cc4)CC3)ccc2o1)C1CCN(Cc2ccccc2C#N)CC1 [Compound 1-111, N-(1-(2-cyanobenzyl)piperidin-4-yl)-N-methyl-5-(1-(4-(trifluoromethyl)phenyl)piperidin-4-yloxy)benzofuran-2-carboxamide] |
| < 100 | O=C(NC1CCN(C(=O)c2ccncc2)CC1)c1cc2ccc(OC3CCN(c4ccc(C(F)(F)F)cc4)CC3)cc2o1 [Compound 1-112, N-(1-isonicotinoylpiperidin-4-yl)-6-(1-(4-(trifluoromethyl)phenyl)piperidin-4-yloxy)benzofuran-2-carboxamide] |
| 100 to 500 | CC(C)(C)OC(=O)N1CCC(NC(=O)c2cc3cc(OC4CCN(Cc5ccc(C#N)cc5)CC4)ccc3o2)CC1 [Compound 1-113, tert-butyl 4-(5-(1-(4-cyanobenzyl)piperidin-4-yloxy)benzofuran-2-carboxamido) piperidine-1-carboxylate] |
| 100 to 500 | N#Cc1ccc(CN2CCC(Oc3ccc4oc(C(=O)NC5CCN(Cc6ccccc6)CC5)cc4c3)CC2)cc1 [Compound 1-114, N-(1-benzylpiperidin-4-yl)-5-(1-(4-cyanobenzyl)piperidin-4-yloxy)benzofuran-2-carboxamide] |
| < 100 | O=C(NC1CCN(C(=O)c2ccncc2)CC1)c1cc2cc(OC3CCN(c4ccc(C(F)(F)F)cc4)CC3)ccc2o1 [Compound 1-115, N-(1-isonicotinoylpiperidin-4-yl)-5-(1-(4-(trifluoromethyl)phenyl)piperidin-4-yloxy)benzofuran-2-carboxamide] |
| 100 to 500 | NC(=O)c1ccc(CN2CCC(Oc3ccc4oc(C(=O)NC5CCN(Cc6ccccc6)CC5)cc4c3)CC2)cc1 [Compound 1-116, N-(1-benzylpiperidin-4-yl)-5-(1-(4-carbamoylbenzyl)piperidin-4-yloxy)benzofuran-2-carboxamide] |
| < 100 | CN(C(=O)c1cc2cc(OC3CCN(c4ccc(C(F)(F)F)cc4)CC3)ccc2o1)C1CCN(Cc2ccccn2)CC1 [Compound 1-117, N-methyl-N-(1-(pyridin-2-ylmethyl)piperidin-4-yl)-5-(1-(4-(trifluoromethyl)phenyl)piperidin-4-yloxy)benzofuran-2-carboxamide] |
| 100 to 500 | CN(C(=O)c1cc2cc(OC3CCN(c4ccc(C(F)(F)F)cc4)CC3)ccc2o1)C1CCN(C(=O)c2ccncc2)CC1 [Compound 1-118, N-(1-isonicotinoylpiperidin-4-yl)-N-methyl-5-(1-(4-(trifluoromethyl)phenyl)piperidin-4-yloxy)benzofuran-2-carboxamide] |
| < 100 | CN(C(=O)c1cc2cc(OC3CCN(c4ccc(C(F)(F)F)cc4)CC3)ccc2o1)C1CCN(Cc2ccc(C(F)(F)F)cc2)CC1 [Compound 1-119, N-methyl-N-(1-(4-(trifluoromethyl)benzyl)piperidin-4-yl)-5-(1-(4-(trifluoromethyl)phenyl)piperidin-4-yloxy)benzofuran-2-carboxamide] |

same assay, conditions: Table 8, compounds of Table 1; formate salt

| EC50 [nM] | SMILES |
| --- | --- |
| < 100 | O=C(NC1CCN(Cc2ccncc2)CC1)c1cc2cc(OC3CCN(c4ccc(C(F)(F)F)cc4)CC3)ccc2o1 [Compound 1-105, N-(1-(pyridin-4-ylmethyl)piperidin-4-yl)-5-(1-(4-(trifluoromethyl)phenyl)piperidin-4-yloxy)benzofuran-2-carboxamide, formate salt] |
